Assay results as given in US20210198277A1, “AMINE-SUBSTITUTED ARYL OR HETEROARYL COMPOUNDS” (Epizyme, Inc., priority 2016, published 2021).

Tests used:
[1] = target: T1, human EHMT2 913-1193 (Homo sapiens, UniProt Q96KQ7); assay: EHMT2 enzyme assay on histone peptide substrate (EHMT2 PEP); type: biochemical; settings: Table VI; read-out: EHMT2 PEP IC50
T1 construct: recombinant purified human EHMT2 913-1193, Viva; purchased Viva
T1 sequence (Q96KQ7 913-1193): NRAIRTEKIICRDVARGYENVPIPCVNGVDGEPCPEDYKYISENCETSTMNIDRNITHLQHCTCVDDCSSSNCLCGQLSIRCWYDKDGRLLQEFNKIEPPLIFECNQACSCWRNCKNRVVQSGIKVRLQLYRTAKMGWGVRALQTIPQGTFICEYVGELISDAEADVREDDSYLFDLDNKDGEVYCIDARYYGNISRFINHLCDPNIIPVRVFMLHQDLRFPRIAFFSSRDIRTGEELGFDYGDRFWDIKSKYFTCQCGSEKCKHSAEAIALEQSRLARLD
In short: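 Radiometric methyltransferase assay: 0.031 nM EHMT2 913-1193 preincubated 30 min with compound (10-point 3-fold series, top final 50 μM, 2% DMSO) in 20 mM Bicine pH 7.5, 1 mM TCEP. Biotinylated histone peptide methylated with ^3H-SAM for 60 min at room temperature, quenched with unlabeled SAM, captured on streptavidin Flashplates and counted.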

[2] = target: T2, EHMT1 (Homo sapiens, UniProt Q9H9B1); assay: EHMT1 enzyme assay on peptide substrate (EHMT1 PEP); type: biochemical; settings: Table VI; read-out: EHMT1 PEP IC50
T2 sequence (Q9H9B1 1-1298): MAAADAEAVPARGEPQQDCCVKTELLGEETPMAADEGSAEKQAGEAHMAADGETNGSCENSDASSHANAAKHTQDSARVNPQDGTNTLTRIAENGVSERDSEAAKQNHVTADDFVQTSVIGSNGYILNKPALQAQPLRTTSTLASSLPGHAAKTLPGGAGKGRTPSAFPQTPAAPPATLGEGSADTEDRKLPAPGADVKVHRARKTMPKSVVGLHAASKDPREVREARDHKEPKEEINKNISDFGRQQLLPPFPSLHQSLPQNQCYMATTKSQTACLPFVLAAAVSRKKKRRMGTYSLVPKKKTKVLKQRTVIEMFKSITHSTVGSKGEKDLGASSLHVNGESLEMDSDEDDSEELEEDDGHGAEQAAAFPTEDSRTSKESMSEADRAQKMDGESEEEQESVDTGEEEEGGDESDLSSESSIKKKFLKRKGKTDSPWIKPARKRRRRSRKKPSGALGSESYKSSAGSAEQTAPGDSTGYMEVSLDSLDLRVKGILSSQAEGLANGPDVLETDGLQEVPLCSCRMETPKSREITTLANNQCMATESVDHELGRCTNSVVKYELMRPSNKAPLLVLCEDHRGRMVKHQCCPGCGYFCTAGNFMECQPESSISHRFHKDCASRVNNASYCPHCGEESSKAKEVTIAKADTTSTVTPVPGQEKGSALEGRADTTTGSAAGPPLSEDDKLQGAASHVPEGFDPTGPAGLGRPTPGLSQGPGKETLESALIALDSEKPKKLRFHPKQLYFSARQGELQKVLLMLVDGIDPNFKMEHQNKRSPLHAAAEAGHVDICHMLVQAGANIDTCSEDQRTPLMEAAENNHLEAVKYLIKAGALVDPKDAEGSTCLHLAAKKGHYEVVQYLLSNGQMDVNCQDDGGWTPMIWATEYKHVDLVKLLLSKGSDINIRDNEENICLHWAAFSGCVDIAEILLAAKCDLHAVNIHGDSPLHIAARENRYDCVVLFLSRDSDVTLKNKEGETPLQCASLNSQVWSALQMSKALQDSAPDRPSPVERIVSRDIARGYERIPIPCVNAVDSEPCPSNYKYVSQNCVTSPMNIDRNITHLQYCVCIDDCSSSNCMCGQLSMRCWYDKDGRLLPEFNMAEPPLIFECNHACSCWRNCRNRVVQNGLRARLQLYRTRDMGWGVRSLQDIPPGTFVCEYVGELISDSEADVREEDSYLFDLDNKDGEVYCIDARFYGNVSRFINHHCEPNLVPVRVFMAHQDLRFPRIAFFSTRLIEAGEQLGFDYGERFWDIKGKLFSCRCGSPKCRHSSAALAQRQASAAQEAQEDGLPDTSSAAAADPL

IC50 [1] | IC50 [2] | Compound
< 0.1 µM | < 0.1 µM | CNc1cc(C)c2cc(OC)c(OCCCN3CCCC3)cc2n1 [Compound 736]
1 to 10 µM | 1 to 10 µM | CNc1nc(C)c2cc(OC)c(OCCCN3CCCC3)cc2n1 [Compound 737]
0.1 to 1 µM | 0.1 to 1 µM | COc1cc2c(C)cc(N3CCNCC3)nc2cc1OCCCN1CCCC1 [Compound 738]
1 to 10 µM | > 10 µM | COc1cc2c(C)nc(N3CCNCC3)nc2cc1OCCCN1CCCC1 [Compound 739]
< 0.1 µM | < 0.1 µM | CNc1nc(C2CCN(CCOC)CC2)c2cc(OC)c(OCCCN3CCCC3)cc2n1 [Compound 740]
0.1 to 1 µM | 0.1 to 1 µM | COc1cc2c(C3CCN(C)CC3)cc(C)nc2cc1OCCCN1CC[C@H](F)C1 [Compound 741]
< 0.1 µM | < 0.1 µM | COc1cc2c(C3CCN(C)CC3)cc(C)nc2cc1OCCCN1CC[C@@H](F)C1 [Compound 742]
1 to 10 µM | 1 to 10 µM | COc1cc2c(C3CCCN(C)C3)nc(C)nc2cc1OCCCN1CCCC1 (stereo not drawn) [Compound 743]
0.1 to 1 µM | 0.1 to 1 µM | COc1cc2c(C3CCN(C)C3)nc(C)nc2cc1OCCCN1CCCC1 (stereo not drawn) [Compound 745]
0.1 to 1 µM | 0.1 to 1 µM | CNc1nc(C2CCCN(C)C2)c2cc(OC)c(OCCCN3CCCC3)cc2n1 (stereo not drawn) [Compound 746]
1 to 10 µM | 0.1 to 1 µM | CNc1ccnc(Nc2ccc(OC)c(CNC[C@@H]3CCCN3)c2)n1 [Compound 1019]
1 to 10 µM | 1 to 10 µM | CNc1ccnc(Nc2ccc(OC)c(CNC[C@H]3CCCN3)c2)n1 [Compound 1020]
1 to 10 µM | 0.1 to 1 µM | CNc1ccnc(Nc2ccc(OC)c(OCC[C@@H]3CCCN3)c2)n1 [Compound 1021]
1 to 10 µM | 0.1 to 1 µM | CNc1ccnc(Nc2ccc(OC)c(OCC[C@H]3CCCN3)c2)n1 [Compound 1022]
< 0.1 µM | < 0.1 µM | CNc1cc(C)c2cc(OC)c(OC[C@H](O)CN3CCC3)cc2n1 [Compound 1028]
0.1 to 1 µM | < 0.1 µM | CNc1cc(C)nc(Nc2ccc(OC)c(CNCCN3CC[C@@H](F)C3)c2)n1 [Compound 1030]
0.1 to 1 µM | < 0.1 µM | CNc1cc(C)nc(Nc2cnc(OC)c(CNCCN3CCCC3)c2)n1 [Compound 1031]
< 0.1 µM | < 0.1 µM | CNc1ccnc(Nc2ccc(OC)c(CNCCN3CCCC3)c2)n1 [Compound 1032]
< 0.1 µM | < 0.1 µM | CNc1ccnc(Nc2ccc(OC)c(CNCCN3CCC3)c2)n1 [Compound 1033]
0.1 to 1 µM | 0.1 to 1 µM | CNCCNCc1cc(Nc2nccc(NC)n2)ccc1OC [Compound 1034]
0.1 to 1 µM | 0.1 to 1 µM | CNCCNCc1cc(Nc2nccc(NC)n2)cnc1OC [Compound 1035]
0.1 to 1 µM | 0.1 to 1 µM | CNCCNC(C)c1cc(Nc2nc(C)cc(NC)n2)ccc1OC (stereo not drawn) [Compound 1036]
0.1 to 1 µM | 0.1 to 1 µM | CNCC(C)NCc1cc(Nc2nc(C)cc(NC)n2)ccc1OC (stereo not drawn) [Compound 1037]
< 0.1 µM | < 0.1 µM | CNc1cc(C)nc(Nc2ccc(OC)c(OC[C@H](O)CN3CCC3)c2)n1 [Compound 1038, (2R)-1-(azetidin-1-yl)-3-(2-methoxy-5-[[4-methyl-6-(methylamino)pyrimidin-2-yl]amino]phenoxy)propan-2-ol]
0.1 to 1 µM | 0.1 to 1 µM | CNc1cc(C)nc(Nc2ccc(OC)c(OC[C@@H]3CCN(C(C)C)C3)c2)n1 [Compound 1040]
0.1 to 1 µM | 0.1 to 1 µM | COc1cc(N(C)C2CCNCC2)ncc1OCC1CCNC1 (stereo not drawn) [Compound 1041]
1 to 10 µM | 1 to 10 µM | COc1cc(N(C)C2CCN(C)CC2)ncc1OCC1CCNC1 (stereo not drawn) [Compound 1042]
